Reference: patent US11464770B2, “Anticancer pharmaceutical composition” (NATIONAL CANCER CENTER, priority 2016, dated 2022)
Read-outs that look alike come from different tables or passages of the source.

Tests used:
[1] = test system: bladder cancer cell lines; assay: Cell based assay, cell viability (CellTiter-Glo), bladder cancer cell lines; conditions: 72 hours treatment, 0 to 2 μM, CellTiter-Glo
Method: (§1) Commercially available bladder cancer, prostate cancer, lung cancer, breast cancer, blood cancer, pancreatic cancer, colorectal cancer, brain cancer, neuroblastoma, melanoma, liver cancer, cervical carcinoma, ovarian cancer, renal cancer, and papilloma cell lines were each treated with trypsin-EDTA and cultured, followed by being seeded in each well of a 96 well plate. After 24 hours of treatment at constant temperature, the respective cells were treated with the candidate compound so that a final concentration became 0 to 2 μM. The treated cells were additionally cultured for 72 hours, and cell viability was measured by using an ATP detection method (CellTiter-Glo® Luminescent Cell Viability Assay, Promega).

[2] = test system: blood cancer cell lines (e.g. HL-60, Jurkat, Raji, Ramos, Daudi, MOLT-4); assay: Cell based assay, cell viability (CellTiter-Glo), blood cancer cell lines; conditions: Homo sapiens
Method: as §1

[3] = 253J cells, read-out: IC50, bladder cancer cell line 253J
[4] = 5637 cells, read-out: IC50, bladder cancer cell line 5637
[5] = Homo sapiens, T-24, T24 cells, read-out: IC50, bladder cancer cell line T24
[6] = Homo sapiens, UMUC3, UM-UC-3 cells, read-out: IC50, bladder cancer cell line UM-UC-3
[7] = Homo sapiens, J82 cells, read-out: IC50, bladder cancer cell line J82
[8] = Homo sapiens, KU-19-19 cells, read-out: IC50, bladder cancer cell line KU-19-19
[9] = MBT-2 cells, read-out: IC50, bladder cancer cell line MBT-2
[10] = MV4-11, blood cancer cell line MV-4-11, 72 hours, read-out: IC50, MV-4-11
[11] = blood cancer cell line Daudi, 72 hours, read-out: IC50, Daudi
[12] = blood cancer cell line HL-60, 72 hours, read-out: IC50, HL-60
[13] = blood cancer cell line Jurkat, 72 hours, read-out: IC50, Jurkat
[14] = blood cancer cell line MOLT-4, 72 hours, read-out: IC50, MOLT-4
[15] = blood cancer cell line Raji, 72 hours, read-out: IC50, Raji
[16] = blood cancer cell line Ramos (RA 1), 72 hours, read-out: IC50, Ramos (RA 1)
[17] = blood cancer cell line U-937, 72 hours, read-out: IC50, U-937

IC50 [1, 3]	IC50 [1, 4]	IC50 [1, 5]	IC50 [1, 6]	IC50 [1, 7]	IC50 [1, 8]	IC50 [1, 9]	IC50 [2, 10]	IC50 [2, 11]	IC50 [2, 12]	IC50 [2, 13]	IC50 [2, 14]	IC50 [2, 15]	IC50 [2, 16]	IC50 [2, 17]	Compound
> 2000 nM	> 2000 nM	> 2000 nM	> 2000 nM	> 2000 nM	> 2000 nM	> 2000 nM	> 2000 nM	> 2000 nM	> 2000 nM	> 2000 nM	> 2000 nM	> 2000 nM	> 2000 nM	> 2000 nM	CSc1c(C(C)=O)c(=O)c2cc(F)ccc2n1C [Compound 7, 3-acetyl-6-fluoro-1-methyl-2-(methylthio)quinolin-4(1H)-one]
> 2000 nM	> 2000 nM	> 2000 nM	> 2000 nM	> 2000 nM	> 2000 nM	> 2000 nM	> 2000 nM	> 2000 nM	> 2000 nM	> 2000 nM	> 2000 nM	> 2000 nM	> 2000 nM	> 2000 nM	CC(=O)c1c([S+](C)[O-])n(Cc2ccc(F)c(Cl)c2)c2c(Br)ccc(Cl)c2c1=O (centres unmarked) [Compound 22, 3-acetyl-8-bromo-5-chloro-1-(3-chloro-4-fluorobenzyl)-2-(methylsulfinyl)quinolin-4(1H)-one]
> 2000 nM	> 2000 nM	> 2000 nM	> 2000 nM	> 2000 nM	> 2000 nM	> 2000 nM	> 2000 nM	> 2000 nM	> 2000 nM	> 2000 nM	> 2000 nM	> 2000 nM	> 2000 nM	> 2000 nM	CC(=O)c1c(SCc2ccccc2)nc2c(Br)ccc(Cl)c2c1O [Compound 52, 1-(2-(benzylthio)-8-bromo-5-chloro-4-hydroxyquinolin-3-yl)ethan-1-one]
	> 2000 nM	1660 nM		> 2000 nM			1160 nM	1370 nM	1650 nM	590 nM	> 2000 nM	1660 nM	1060 nM	> 2000 nM	Cc1cc(C[S+]([O-])c2[nH]c3c(Br)ccc(Cl)c3c(=O)c2C(=O)C2CC2)no1 (centres unmarked) [Compound 96, 8-bromo-5-chloro-3-(cyclopropanecarbonyl)-2-(((5-methylisoxazol-3-yl)methyl)sulfinyl)quinolin-4(1H)-one]
> 2000 nM	> 2000 nM	> 2000 nM	> 2000 nM	> 2000 nM	> 2000 nM	> 2000 nM	> 2000 nM	> 2000 nM	> 2000 nM	> 2000 nM	> 2000 nM	> 2000 nM	> 2000 nM	> 2000 nM	CC(=O)c1c(S/C=C\C(=O)O)[nH]c2c(Br)ccc(Cl)c2c1=O [Compound 67, (Z)-3-((3-acetyl-8-bromo-5-chloro-4-oxo-1,4-dihydroquinolin-2-yl)thio)acrylic acid]
> 2000 nM	> 2000 nM	> 2000 nM		> 2000 nM			> 2000 nM	> 2000 nM	> 2000 nM	> 2000 nM	> 2000 nM	> 2000 nM	> 2000 nM	> 2000 nM	COc1ccccc1[S+]([O-])c1[nH]c2c(Br)ccc(Cl)c2c(=O)c1C(C)=O (centres unmarked) [Compound 15, 3-acetyl-8-bromo-5-chloro-2-((2-methoxyphenyl)sulfinyl)quinolin-4(1H)-one]
> 2000 nM	> 2000 nM	> 2000 nM	> 2000 nM	> 2000 nM	> 2000 nM	> 2000 nM	> 2000 nM	> 2000 nM	> 2000 nM	> 2000 nM	> 2000 nM	> 2000 nM	> 2000 nM	> 2000 nM	COc1cccc2[nH]c(SCc3ccc(S(F)(F)(F)(F)F)cc3)c(C(C)=O)c(=O)c12 [Compound 92, 3-acetyl-5-methoxy-2-((4-(pentafluoro--sulfanyl)benzyl)thio)quinolin-4(1H)-one]
> 2000 nM	> 2000 nM	> 2000 nM		> 2000 nM			> 2000 nM	> 2000 nM	> 2000 nM	> 2000 nM	> 2000 nM	> 2000 nM	> 2000 nM	> 2000 nM	CC(=O)c1c([S+]([O-])Cc2ccc(NS(C)(=O)=O)cc2)[nH]c2c(Br)ccc(Cl)c2c1=O (centres unmarked) [Compound 103, N-(4-(((3-acetyl-8-bromo-5-chloro-4-oxo-1,4-dihydroquinolin-2-yl)sulfinyl)methyl)phenyl)methane-sulfonamide]
> 2000 nM	> 2000 nM	> 2000 nM	> 2000 nM	> 2000 nM	> 2000 nM	> 2000 nM	> 2000 nM	> 2000 nM	> 2000 nM	> 2000 nM	> 2000 nM	> 2000 nM	> 2000 nM	> 2000 nM	CSc1c(C(C)=O)c(=O)c2c(Cl)ccc(Br)c2n1S(=O)(=O)c1ccc([N+](=O)[O-])cc1 [Compound 38, 3-acetyl-8-bromo-5-chloro-2-(methylthio)-1-((4-nitrophenyl)sulfonyl)quinolin-4(1H)-one]
> 2000 nM	> 2000 nM	> 2000 nM	> 2000 nM	> 2000 nM	> 2000 nM	> 2000 nM	> 2000 nM	> 2000 nM	> 2000 nM	> 2000 nM	> 2000 nM	> 2000 nM	> 2000 nM	> 2000 nM	CC(=O)c1c(S(C)(=O)=O)n(C(=O)c2ccc(Br)cc2)c2c(Br)ccc(Cl)c2c1=O [Compound 21, 3-acetyl-8-bromo-1-(4-bromobenzoyl)-5-chloro-2-(methylsulfonyl)quinolin-4(1H)-one]
> 2000 nM	> 2000 nM	> 2000 nM	> 2000 nM	> 2000 nM	> 2000 nM	> 2000 nM	> 2000 nM	> 2000 nM	> 2000 nM	> 2000 nM	> 2000 nM	> 2000 nM	> 2000 nM	> 2000 nM	CC(=O)c1c(S(C)(=O)=O)n(S(=O)(=O)c2ccc(C(C)(C)C)cc2)c2c(Br)ccc(Cl)c2c1=O [Compound 41, 3-acetyl-8-bromo-1-((4-(tert-butyl)phenyl)sulfonyl)-5-chloro-2-(methylsulfonyl)quinolin-4(1H)-one]
	1910 nM			> 2000 nM			800 nM	1040 nM	> 2000 nM	510 nM	770 nM	1290 nM	700 nM	1350 nM	Cc1cc(C[S+]([O-])c2[nH]c3c(Cl)ccc(Cl)c3c(=O)c2C(=O)C2CC2)no1 (centres unmarked) [Compound 97, 5,8-dichloro-3-(cyclopropanecarbonyl)-2-(((5-methylisoxazol-3-yl)methyl)sulfinyl)quinolin-4(1H)-one]
> 2000 nM	> 2000 nM	> 2000 nM	> 2000 nM	> 2000 nM	> 2000 nM	> 2000 nM	> 2000 nM	> 2000 nM	> 2000 nM	> 2000 nM	> 2000 nM	> 2000 nM	> 2000 nM	> 2000 nM	CC(=O)c1c([S+]([O-])C(C)C)[nH]c2c(Br)ccc(Cl)c2c1=O (centres unmarked) [Compound 25, 3-acetyl-8-bromo-5-chloro-2-(isopropylsulfinyl)quinolin-4(1H)-one]
> 2000 nM	> 2000 nM	> 2000 nM		> 2000 nM			> 2000 nM	> 2000 nM	> 2000 nM	> 2000 nM	> 2000 nM	> 2000 nM	> 2000 nM	> 2000 nM	CC(=O)c1c([S+]([O-])Cc2ccc(C(F)(F)F)o2)[nH]c2c(F)ccc(F)c2c1=O (centres unmarked) [Compound 81, 3-acetyl-5,8-difluoro-2-(((5-(trifluoromethyl)furan-2-yl)methyl)sulfinyl)quinolin-4(1H)-one]
	> 2000 nM	> 2000 nM		> 2000 nM			> 2000 nM	1040 nM	> 2000 nM	1010 nM	1160 nM	1790 nM	1480 nM	> 2000 nM	O=C(c1c([S+]([O-])Cc2ccc(SC(F)(F)F)cc2)[nH]c2c(Br)ccc(Cl)c2c1=O)C1CC1 (centres unmarked) [Compound 101, 8-bromo-5-chloro-3-(cyclopropanecarbonyl)-2-((4-((trifluoromethyl)thio)benzyl)sulfinyl)quinolin-4(1H)-one]
> 2000 nM	> 2000 nM	> 2000 nM	> 2000 nM	> 2000 nM	> 2000 nM	> 2000 nM	> 2000 nM	> 2000 nM	> 2000 nM	> 2000 nM	> 2000 nM	> 2000 nM	> 2000 nM	> 2000 nM	CC(=O)c1c(SCc2cccc(C#N)c2)[nH]c2c(Br)ccc(Cl)c2c1=O [Compound 27, 3-(((3-acetyl-8-bromo-5-chloro-4-oxo-1,4-dihydroquinolin-2-yl)thio)methyl)benzonitrile]
> 2000 nM	> 2000 nM	> 2000 nM	> 2000 nM	> 2000 nM	> 2000 nM	> 2000 nM	> 2000 nM	> 2000 nM	> 2000 nM	> 2000 nM	> 2000 nM	> 2000 nM	> 2000 nM	> 2000 nM	CC(=O)c1c(SCC#N)[nH]c2c(Br)ccc(Cl)c2c1=O [Compound 66, 2-((3-acetyl-8-bromo-5-chloro-4-oxo-1,4-dihydroquinolin-2-yl)thio)acetonitrile]
> 2000 nM	> 2000 nM	> 2000 nM		> 2000 nM			> 2000 nM	> 2000 nM	> 2000 nM	> 2000 nM	> 2000 nM	> 2000 nM	> 2000 nM	> 2000 nM	O=C(c1ccccc1)c1c([S+]([O-])Cc2ccc(S(F)(F)(F)(F)F)cc2)[nH]c2c(F)ccc(F)c2c1=O (centres unmarked) [Compound 87, 3-benzoyl-5,8-difluoro-2-((4-(pentafluoro--sulfanyl)benzyl)sulfinyl)quinolin-4(1H)-one]

Compound	IC50 [1, 3]	IC50 [1, 4]	IC50 [1, 5]	IC50 [1, 6]	IC50 [1, 7]	IC50 [1, 8]	IC50 [1, 9]	IC50 [2, 10]	IC50 [2, 11]	IC50 [2, 12]	IC50 [2, 13]	IC50 [2, 14]	IC50 [2, 15]	IC50 [2, 16]	IC50 [2, 17]
CC(=O)c1c([S+]([O-])Cc2ccccc2)nc2c(Br)ccc(Cl)c2c1O (centres unmarked) [Compound 4]	1000 nM	1910 nM	1310 nM		> 2000 nM			1610 nM	> 2000 nM	1980 nM	1070 nM	1370 nM	1150 nM	1760 nM	1240 nM
